{
  "source": "patent US11554124B2",
  "about": "“Hematopoiesis-enhancing agent” (priority 2018, dated 2023)",
  "key": {"[1]": {"system": "bone marrow erythroblasts", "test": "Flow cytometry of bone marrow cells / erythroblast subsets (Ter119/CD71 double staining) of treated mice", "type": "in vivo, mouse", "conditions": "CLEU 50 mg/body i.p.", "description": "Wild-type mice with a genetic background of C57BL/6J were purchased from Charles River Laboratories, Inc. Mice at 8 to 14 weeks of age were used for analysis. For CLEU treatment (50 mg/body), a solution of cycloleucine (CLEU) was prepared by diluting cycloleucine (CLEU) (Sigma) in PBS (50 mg/ml), and 1 ml of the CLEU solution was administered intraperitoneally. For AKBA treatment (2 mg/body), 2 mg AKBA (Enzo Life Sciences)/20% DMSO/1 mL PBS solution was administered intraperitoneally. Vehicle without AKBA was used as a control. For measuring complete blood count of peripheral blood, peripheral blood was collected from facial veins and counted by use of an automated animal blood cell counter (microsemi LC-662). All of the experiments conducted in this study were approved by the Animal Experiment Committee of the Environmental Safety Committee of Tohoku University.\nBM cells and spleen cells were harvested in a conventional manner. Cells were stained with combinations of antibodies specific to erythroblasts and mature cells, to thereby identify them. The cells were visualized with antibody and streptavidin-peridinin chlorophyll protein-cyanin 5.5. The antibodies used in this study were as follows: anti-CD3e (145-2C11), anti-CD4 (GK1.5 or RM4.5), anti-CD8a (53-6.7), anti-Gr-1 (RB6-8C5), anti-B220 (RA3-6B2), anti-Ter-119 (TER-119), anti-CD71 (R17217 or C2). Cells were stained with […] (Sigma), and dead cells were excluded from analysis. Flow cytometric analysis and cell sorting were performed according to the manufacturer's protocol using FACS AriaII (BD), and then the obtained data were analyzed using FlowJo software (TreeStar).\nAdditionally, MAT inhibitor PF9366 (PF) was administered to mice and the effect thereof was investigated. Vehicle (DMSO) (control (Ctrl)) or 10 mM PF9366 (prepared at a concentration of 40 μl/40 ml water) was provided in a drinking bottle (0 h). In addition, 80 μl of vehicle (DMSO) or 80 μl of 10 mM PF9366 dissolved in 1 ml PBS was also administered intraperitoneally at 0 h and 24 h. Analysis was carried out at Day 2 (48 h).\nMAT inhibitor 3-acetyl-11-keto-β-boswellic acid (AKBA; 2 mg/body) was intraperitoneally administered to mice at 0 and 24 hours, and analyzed after 48 hours."}, "erythropoietin": {"system": "erythropoietin", "test": "Serum erythropoietin levels determined by ELISA", "type": "in vivo, mouse", "conditions": "CLEU 50 mg/body i.p., vs PBS", "from_the_text": "FIG. 2 is the experimental result showing that a significant erythropoiesis was induced independently of erythropoietin as a result of SAM reduction by CLEU. Panel A: Abundance of SAM in cells selected from bone marrow subset II treated with PBS or CLEU (Day 2). Panel B: Peripheral blood hemoglobin concentration on the days indicated after PBS or CLEU treatment. Panel C: Total bone marrow cells harvested from the left and right femur and tibiae of PBS or CLEU treated mouse (Day 2). Panel D: Representative image (photograph) of tibia of PBS or CLEU treated mouse (Day 2). Panels E and F: Matured bone marrow cells from each group analyzed by flow cytometry (Day 2). Representative results of flow cytometric analysis are shown in Panel E. Cumulative cell numbers in each of the indicated groups are shown in F. Red blood cell (Ter119^+ Gr1^− B220^− CD4^− CD8^−), myeloid (Gr1^+ Ter119^− B220^− CD4^− CD8^−), and B cells (B220^+ Ter119^− Gr1^− CD4^− CD8^−). Panels G and H: Numbers of bone marrow erythroblasts in each of the subsets analyzed by flow cytometry (Day 2). […] Panel L: Serum erythropoietin levels determined by ELISA. […] For measuring complete blood count of peripheral blood, peripheral blood was collected from facial veins and counted by use of an automated animal blood cell counter (microsemi LC-662). […]"}},
  "data": [
    {"compound": "NC1(C(=O)O)CCCC1", "note": "[CLEU, cycloleucine]", "values": [
      {"measurement": "subset from which the increase of erythroblasts was initiated", "setting": "[1]; Day 2, Ter119/CD71 double staining", "result": "initiated from subset II"},
      {"measurement": "maturation of erythroblasts", "setting": "[1]; Day 2, Ter119/CD71 double staining, vs PBS", "result": "significantly up-regulated"},
      {"measurement": "erythroid cells in BM", "setting": "[1]; Day 2, flow cytometry, vs PBS", "result": "considerable increase"},
      {"measurement": "BM cell counts", "setting": "[1]; femur and tibiae, Day 2, vs PBS", "result": "significantly increased"},
      {"measurement": "serum erythropoietin levels", "setting": "erythropoietin", "result": "significantly down-regulated"}
    ]}
  ]
}
